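A five-concentration, 48-hour dose response in 96-well plates underlies each endpoint, interpolated linearly between surrounding concentrations. Here, GI50 denotes the concentration required for 50% inhibition of growth.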 Activity calls are given as the source filed them. Cut-off read from the data, not from the text of the source: active = GI50 up to about 1.1 µM and inactive = higher.

Test systems include CAKI-1; NCI-H23; SK-MEL-5; SN12C; HOP-62; SW-620; LOX IMVI; U-251; HCT-116; SNB-19; SF-268; OVCAR-8; NCI-H460; HT-29; RPMI-8226; SF-295; RXF 393; UO-31; SK-MEL-28; M14.
Holding throughout (test): NCI tumour cell line growth inhibition, 48 h

As to `O=C(O)C(Cc1ccc(O)cn1)NC(=O)C(F)(F)F` (configuration not stated), the GI50 in the experiment on CAKI-1, in the experiment with NCI-H23, in the experiment with SK-MEL-5, in the experiment on SN12C, in the experiment on HOP-62 and with SW-620 was > 100 µM (inactive) in each case. Also, the GI50 in the experiment with LOX IMVI, with U-251, in the experiment on HCT-116, in the experiment with SNB-19, in the experiment with SF-268 and with OVCAR-8 was > 100 µM (inactive) in each case. Moreover, the GI50 with NCI-H460, with HT-29, in the experiment on RPMI-8226, with SF-295, in the experiment with RXF 393 and in the experiment on UO-31 was > 100 µM (inactive) in each case. For the same molecule, the GI50 with SK-MEL-28 is > 100 µM (inactive).
As to `O=C(c1ccco1)C1CC(c2c(O)ccc3ccccc23)=NN1` (configuration not stated), the GI50 with CAKI-1 was 16.2 µM (inactive); in the experiment with NCI-H23, 17.1 µM (inactive); in the experiment with SK-MEL-5, 13.9 µM (inactive); in the experiment with SN12C, 20.1 µM (inactive); with M14 it was 11.9 µM (inactive); in the experiment with HOP-62, 13.8 µM (inactive). For the same molecule, the GI50 in the experiment on SW-620 is 11.8 µM (inactive); in the experiment with U-251 it was 14.7 µM (inactive); in the experiment on SNB-19, 16.4 µM (inactive); with SF-268, 10.1 µM (inactive); in the experiment with OVCAR-8, 18.3 µM (inactive); in the experiment with NCI-H460 it was 7.85 µM (inactive). The GI50 in the experiment with HT-29 was 11.8 µM (inactive); in the experiment on RPMI-8226, 13.6 µM (inactive); in the experiment on SF-295, 11.2 µM (inactive); with RXF 393 it was 17.4 µM (inactive); in the experiment with UO-31, 11.1 µM (inactive); in the experiment with SK-MEL-28, 21 µM (inactive).
Turning to `O=CCCn1[nH]c(=O)ccc1=O`, the GI50 in the experiment on CAKI-1, in the experiment on NCI-H23, in the experiment on SK-MEL-5, in the experiment with SN12C, in the experiment with M14 and with SW-620 was > 100 µM (inactive) each time. In addition, the GI50 in the experiment with LOX IMVI, in the experiment with U-251, in the experiment on HCT-116, with SNB-19, in the experiment on SF-268 and in the experiment on OVCAR-8 was > 100 µM (inactive) each time. Moreover, the GI50 in the experiment on NCI-H460, in the experiment with HT-29, with RPMI-8226, in the experiment on SF-295, with RXF 393 and in the experiment on UO-31 was > 100 µM (inactive) each time. In the experiment on SK-MEL-28, the GI50 was > 100 µM (inactive).
On to `O=c1[nH]c(-c2ccccc2)nc2cc([N+](=O)[O-])c(/C(Cl)=C/c3ccccc3)cc12`, for which the GI50 with CAKI-1 is 15.1 µM (inactive); with NCI-H23, 43.3 µM (inactive); in the experiment with SK-MEL-5, 16.1 µM (inactive); in the experiment on SN12C, 36.6 µM (inactive); in the experiment on SW-620, 23.6 µM (inactive); with U-251, 28.6 µM (inactive). The GI50 in the experiment on HCT-116 is 21 µM (inactive); in the experiment with SNB-19 it was 41 µM (inactive); in the experiment on SF-268 it was 29.2 µM (inactive); in the experiment on OVCAR-8, 19.7 µM (inactive); with HT-29 it was > 10 µM (inactive); with RPMI-8226 it was 16.1 µM (inactive). Moreover, the GI50 in the experiment with SF-295 is 20.7 µM (inactive); with RXF 393 it was 14.4 µM (inactive); with UO-31, 99.5 µM (inactive); in the experiment with SK-MEL-28, 26.2 µM (inactive).
As for `N[C@@H](CSCSC[C@H](N)C(=O)O)C(=O)O`, the GI50 with CAKI-1, in the experiment with NCI-H23, with SK-MEL-5, in the experiment with SN12C, in the experiment with HOP-62 and with SW-620 was > 225 µM (inactive) throughout. Moreover, the GI50 was > 225 µM (inactive) in the experiment with LOX IMVI; > 225 µM (inactive) in the experiment on U-251; > 225 µM (inactive) in the experiment on HCT-116; 174 µM (inactive) in the experiment on SNB-19; > 225 µM (inactive) in the experiment on SF-268; 35.6 µM (inactive) with OVCAR-8. Also, the GI50 with NCI-H460, in the experiment on HT-29, in the experiment on RPMI-8226, in the experiment with SF-295, in the experiment with RXF 393 and with UO-31 was > 225 µM (inactive) in each case. Besides, the GI50 in the experiment on SK-MEL-28 is > 225 µM (inactive).
With `CN(C)C(=O)C1CCC(=C2C(=O)OC(C)(C)OC2=O)N1C` (configuration not stated), the GI50 in the experiment with CAKI-1, in the experiment on NCI-H23, with SK-MEL-5, with SN12C, with M14 and in the experiment with HOP-62 was > 100 µM (inactive) in each case. For the same molecule, the GI50 with SW-620, with LOX IMVI, in the experiment on U-251, in the experiment with HCT-116, in the experiment on SNB-19 and in the experiment with SF-268 was > 100 µM (inactive) throughout. Besides, the GI50 with OVCAR-8, with NCI-H460, with HT-29, in the experiment on SF-295, with RXF 393 and in the experiment on UO-31 was > 100 µM (inactive) in each case. Further, the GI50 with SK-MEL-28 was > 100 µM (inactive).
For the molecule `N=c1c2c(=S)n(-c3ccccc3)c(=S)n(-c3ccccc3)c2nc(SCCCN2CCN(c3cccc(Cl)c3)CC2)n1-c1ccccc1`, the GI50 in the experiment on CAKI-1 is 84.3 µM (inactive); with NCI-H23, > 100 µM (inactive); in the experiment with SK-MEL-5, 92.7 µM (inactive); with HOP-62 it was 44.7 µM (inactive); with SW-620, > 100 µM (inactive); in the experiment on LOX IMVI, 26.5 µM (inactive). Also, the GI50 is > 100 µM (inactive) in the experiment on U-251; > 100 µM (inactive) in the experiment on OVCAR-8; > 100 µM (inactive) with NCI-H460; > 100 µM (inactive) with RPMI-8226; 45.4 µM (inactive) with SF-295; > 100 µM (inactive) with RXF 393. The GI50 in the experiment with SK-MEL-28 is > 100 µM (inactive).
With `CC(C)=CC(=O)OC1C2C(C)=CC(O)C(O)C2(C)C2C3(O)OCC24C(CC(=O)OC14)C(C)C3O` (configuration not stated), the GI50 is 2.93 µM (inactive) with CAKI-1; 0.0611 µM (active) in the experiment with NCI-H23; 0.0252 µM (active) with SK-MEL-5; 0.386 µM (active) in the experiment on SN12C; 0.168 µM (active) with HOP-62; 0.162 µM (active) with SW-620. Besides, the GI50 was 0.0371 µM (active) in the experiment with LOX IMVI; 0.0519 µM (active) with U-251; 0.0361 µM (active) in the experiment with HCT-116; 0.14 µM (active) in the experiment with SNB-19; 0.182 µM (active) with SF-268; 0.166 µM (active) in the experiment on OVCAR-8. For the same molecule, the GI50 in the experiment with NCI-H460 was 0.0596 µM (active); in the experiment on HT-29 it was 0.137 µM (active); in the experiment on RPMI-8226, 0.0346 µM (active); in the experiment with SF-295, 0.28 µM (active); in the experiment with RXF 393 it was 0.183 µM (active); in the experiment with UO-31, 2.32 µM (inactive). Further, the GI50 in the experiment with SK-MEL-28 was 0.0362 µM (active).

The values are drawn from ChEMBL document CHEMBL1201862, “PubChem BioAssay data set” (2004).
